From ChEMBL document CHEMBL5390237, “Discovery of Selective Histone Deacetylase 1 and 2 Inhibitors: Screening of a Focused Library Constructed by Click Chemistry, Kinetic Binding Analysis, and Biological Evaluation” (J Med Chem, 2023) come the findings set out here.

Molecules are shown by their SMILES.

For the assay, the target named is Histone deacetylase 2 (Homo sapiens, UniProt Q92769). The experiment in a line: Inhibition of full-length recombinant human C-terminal GST tagged HDAC2 expressed in Sf9 insect cells using aminoluciferin peptide substrate at 100 nM preincubated for 3 hrs followed by substrate addition and measured after 30 mins by HDAC-Glo I/II chemiluminescence assay. The conditions noted are these: time 3.5 hrs.
Sequence of Histone deacetylase 2 (Q92769 whole entry): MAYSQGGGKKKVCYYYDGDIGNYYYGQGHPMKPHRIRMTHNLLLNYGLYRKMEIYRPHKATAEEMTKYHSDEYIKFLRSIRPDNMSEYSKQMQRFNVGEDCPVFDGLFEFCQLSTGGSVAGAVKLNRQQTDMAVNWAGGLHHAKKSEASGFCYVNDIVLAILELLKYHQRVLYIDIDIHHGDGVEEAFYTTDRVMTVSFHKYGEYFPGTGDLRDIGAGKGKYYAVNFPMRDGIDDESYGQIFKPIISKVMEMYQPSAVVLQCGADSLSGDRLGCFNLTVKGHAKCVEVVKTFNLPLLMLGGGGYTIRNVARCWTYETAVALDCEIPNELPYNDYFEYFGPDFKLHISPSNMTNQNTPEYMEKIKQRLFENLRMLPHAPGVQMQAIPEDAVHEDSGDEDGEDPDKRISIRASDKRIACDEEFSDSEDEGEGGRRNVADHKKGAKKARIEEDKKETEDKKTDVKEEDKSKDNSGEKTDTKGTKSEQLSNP
For the molecule `Nc1ccc(-c2cccs2)cc1NC(=O)c1cccc(-c2cn(Cc3ccc(Oc4ccccc4)cc3)nn2)c1`, the inhibition is 0%. As for `Nc1ccc(-c2ccc(F)cc2)cc1NC(=O)CCc1cn(-c2ccc(Br)cc2)nn1`, the inhibition amounted to 0%. On to `Nc1ccc(-c2ccc(F)cc2)cc1NC(=O)CCc1cn(CCC2CCCC2)nn1`, for which the inhibition amounted to 0%. On to `Nc1ccc(-c2cccs2)cc1NC(=O)c1ccc(-c2cn(CCc3cccc(F)c3)nn2)cc1`, for which the inhibition was found to be 22%. For `Cc1ccccc1CCn1cc(-c2ccc(C(=O)Nc3cc(-c4cccs4)ccc3N)cc2)nn1`, the inhibition was 0%. Consider `Nc1ccc(-c2cccs2)cc1NC(=O)c1cccc(-c2cn(CCc3cccc(F)c3)nn2)c1`, for which the inhibition amounted to 0%.

With `Nc1ccc(-c2ccccc2)cc1NC(=O)c1cn(CCc2cccc(-c3ccccc3)c2)nn1`, the inhibition is 0%. Regarding `Nc1ccc(-c2cccs2)cc1NC(=O)c1cccc(-c2cn(Cc3cc4ccccc4s3)nn2)c1`, the inhibition worked out at 0%. In the case of `CCc1ccc(Cn2cc(C(=O)Nc3cc(-c4ccc(F)cc4)ccc3N)nn2)cc1`, the inhibition worked out at 0%. As for `Nc1ccc(-c2cccs2)cc1NC(=O)c1ccc(-c2cn(CCc3ccccc3)nn2)s1`, the inhibition was found to be 40%. On to `Nc1ccc(-c2cccs2)cc1NC(=O)c1cccc(-c2cn(CS(=O)(=O)c3ccccc3)nn2)c1`, for which the inhibition was 3%. As to `Nc1ccc(-c2ccc(F)cc2)cc1NC(=O)CCc1cn(Cc2cccc(-c3ccccc3)c2)nn1`, the inhibition worked out at 0%. `Nc1ccc(-c2cccnc2)cc1NC(=O)CCc1cn(Cc2nc3ccccc3[nH]2)nn1`: the inhibition was found to be 11%. Then `Nc1ccc(-c2ccsc2)cc1NC(=O)CCc1cn(CCc2ccc3ccccc3n2)nn1`, with 20%. `Nc1ccc(-c2ccccc2)cc1NC(=O)c1cn(Cc2cccc(C(=O)O)c2)nn1`: the inhibition worked out at 0%.

Turning to `Nc1ccc(-c2ccccc2)cc1NC(=O)c1cn(-c2cccc3ccccc23)nn1`, the inhibition was 0%. On to `Cc1ccccc1CCn1cc(CCC(=O)Nc2cc(-c3ccc(F)cc3)ccc2N)nn1`, for which the inhibition is 7%.

`Nc1ccc(-c2ccc(F)cc2)cc1NC(=O)CCc1cn(CCCCCCCC(=O)O)nn1`: the inhibition was 15%.

`Nc1ccc(-c2cccs2)cc1NC(=O)c1cn(CCc2ccc(Cl)cc2)nn1`: the inhibition was 0%.

For `Nc1ccc(-c2cccs2)cc1NC(=O)c1cccc(-c2cn(-c3cccc4ccccc34)nn2)c1`, the inhibition was 0%. On to `Nc1ccc(-c2cccs2)cc1NC(=O)c1ccc(-c2cn(CC(=O)Nc3ccc(F)cc3)nn2)cc1`, for which the inhibition worked out at 50%. Turning to `Nc1ccc(-c2ccc(F)cc2)cc1NC(=O)CCc1cn(CCN2CCOCC2)nn1`, the inhibition was 0%. As to `Nc1ccc(-c2ccsc2)cc1NC(=O)c1cn(CCc2ccc(C(=O)O)cc2)nn1`, the inhibition amounted to 18%. On to `Nc1ccc(-c2cccs2)cc1NC(=O)c1ccc(-c2cn(CCC3CCCCC3)nn2)s1`, for which the inhibition stood at 0%. Turning to `CCc1ccc(Cn2cc(CCC(=O)Nc3cc(-c4ccsc4)ccc3N)nn2)cc1`, the inhibition came out at 6%. Consider `Nc1ccc(-c2ccccc2)cc1NC(=O)CCc1cn(Cc2ccc(-c3ccccc3)cc2)nn1`, for which the inhibition was found to be 0%. In the case of `Nc1ccc(-n2cc(C(=O)Nc3cc(-c4ccccc4)ccc3N)nn2)cc1`, the inhibition is 11%. Then `Nc1ccc(-c2cccs2)cc1NC(=O)c1ccc(-c2cn(CCc3ccccc3Cl)nn2)s1`, with 5%; and `Cc1ccccc1CCn1cc(CCC(=O)Nc2cc(-c3cccnc3)ccc2N)nn1`, with 0%. `Nc1ccc(-c2ccccc2)cc1NC(=O)CCc1cn(Cc2cccc3ccccc23)nn1`: the inhibition was 9%.

With `Nc1ccc(-c2cccs2)cc1NC(=O)c1ccc(-c2cn(CCc3cccc(C(F)(F)F)c3)nn2)s1`, the inhibition came out at 0%. As to `Cc1cccc(CCn2cc(-c3cccc(C(=O)Nc4cc(-c5cccs5)ccc4N)c3)nn2)c1`, the inhibition came to 5%.

Take `Nc1ccc(-c2ccsc2)cc1NC(=O)c1cn(CCCc2ccccc2)nn1`: the inhibition amounted to 5%.
